# Experimental data from patent EP0222996A2, “3-Amino-dihydro(1)benzopyrane and benzothiopyrane” (CIBA-GEIGY AG, priority 1985, dated 1987).
# Counter-ions that a name gives are not always drawn. Like-named read-outs stand apart in the source and are kept apart here.
# Molecular target: T1, Serotonin-(S-1A) (Rattus norvegicus, UniProt P19327)
# T1 construct: Suspensionen aus Membranmaterial von Rattenhirn; from tissue; host or cells: rat brain membranes
# T1 sequence (P19327 1-422): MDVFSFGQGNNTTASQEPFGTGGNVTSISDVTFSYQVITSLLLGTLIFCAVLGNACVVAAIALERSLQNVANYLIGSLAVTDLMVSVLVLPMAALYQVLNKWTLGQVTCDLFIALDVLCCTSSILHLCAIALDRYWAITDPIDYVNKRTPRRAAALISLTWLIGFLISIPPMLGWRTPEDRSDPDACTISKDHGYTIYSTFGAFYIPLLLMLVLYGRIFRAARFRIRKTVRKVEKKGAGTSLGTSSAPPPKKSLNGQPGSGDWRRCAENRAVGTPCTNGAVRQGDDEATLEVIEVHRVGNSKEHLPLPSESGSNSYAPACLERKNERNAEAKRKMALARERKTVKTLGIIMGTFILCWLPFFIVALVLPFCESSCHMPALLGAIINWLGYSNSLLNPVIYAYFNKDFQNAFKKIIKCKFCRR
# Test: 3H-serotonin binding assay on rat brain membrane suspensions
# Design: species or system Ratten
# Source text: Die Serotonin-(S-1A)-Aufnahme, welche für Regulatoren mit Rezeptor-eigenschaften bei Serotonin-Agonisten indiziert ist, kann in-vitro wie folgt in einem Bindungsassay nachgewiesen werden: • Man stellt Suspensionen aus Membranmaterial von Rattenhirn her und inkubiert diese mit ^3H-Serotonin gemäss der Vorschrift von Martin und Sanders-Bush, Naunyn-Schmiederberg Arch. Pharmacol. 321, 165 (1982) und Middlemiss und Fozard Eur. J. Pharmacol., 90, 151 (1983).
# In diesem Bindungsassay werden aliquote Teile von […] Zellsuspensionen zu abgepufferten ^3H-Serotonin-Lösungen mit und ohne Wirkstoff gegeben. Die Konzentration an ^3H-Serotonin ist 2 nM und man wertet die zu testenden Wirkstoffe über einen weiten Konzentrationsbereich aus. Die IC50-Werte (Konzentrationen an Wirkstoff, welche zur Hemmung von 50 % 2 nM ^3H-Serotonin nötig sind) werden graphisch bestimmt.
"IC50 (concentration needed to inhibit 50 % of 2 nM 3H-Serotonin, rat brain membranes, determined graphically, read-out: IC50-Werte) [nM]",SMILES,IC50 [nM]
~21,"CCCN(CCC)C1CSc2cccc(OCC)c2C1 (centres unmarked) [3,4-Dihydro-N,N-dipropyl-5-ethoxy-2H-[1]-benzothiopyran-3-amin-hydrochlorid]",–
–,"CCCN(CCC)C1COc2cccc(OCC)c2C1 (centres unmarked) [5-Aethoxy-N,N-dipropyl-3,4-dihydro-2H-[1]-benzopyran-3-amin-hydrochlorid]",~40
